How the values were obtained:
[1] = test system: PSME4; assay: Western blot of A549 cells treated with mizoribine; type: cell-based; conditions: purine synthesis blocked using mizoribine, FIG. 26B
Protocol: FIG. 26A-B. PSME4 expression correlates with increased Pyrimidine and decreased Purine metabolites. (A) The log 2 fold change in abundance of cellar metabolites in PSME4 high or low expressing cell lines (x axis) is plotted against the significance of the change. […] (B) A549 cells were treated with mizoribine for the time indicated and then separated by SDS-PAGE and analyzed by Western blot probed with the following antibodies: PSME4, LMP7 (PSMB8), PSMB10, pana (recognized all PSMA subunits), and β actin. Cell Culture and Treatments: A549 cells were grown in DMEM supplemented with 10% fetal bovine serum, 1% Penicillin/streptomycin and L-glutamine (2 mM) (Biological industries) at 37° C. with 5% CO2. Cells were treated with 400 U*mL−1 TNFαand/or 200 U*mL-1 IFNγ (peprotech) for the indicated amount of time. Antibodies for Western blotting, immunoprecipitation and immunohistochemistry: Primary antibodies to the following were used: PSMA1 (hybridoma). PANα (PSMA1-7; Enzo, BML-PW8195-0025), PSME4 (Millipore Sigma HPA060922 and Proteintech 18799-1-AP), LMP7 (Cell signaling 13635), PSMB10 (Thermo Fisher PAS19146) and β-Actin (Abcam ab170325) The following secondary antibodies were used: goat anti-mouse HRP (115-035-003) and goat anti-rabbit HRP (111-035-003) (Jackson Labs).

[2] = test system: proteasome; assay: Proteasome Cleavage Reporter Assay in A549 active cell extract; type: biochemical
Protocol: FIGS. 33A-D Active cell extract was prepared from A549 lung cancer cells, cells treated with TNFα and IFNγ (TI) and cells treated with TI and recombinant PA200. As a control, MG132 proteasome inhibitor was added. The extracts were then incubated with LLVY-AMC (SEQ ID NO: 1) (A) or PAL-AMC (SEQ ID NO: 2) (B) for 3.5 hours and the relative fluorescence units (RFU) was measured every minute. The RFU for each condition using LLVY-AMC (SEQ ID NO: 1) (C) or PAL-AMC (SEQ ID NO: 2) (D) is shown at 1.5 and 3.5 hours across the different repeats of the experiment.
FIGS. 34A-D. Active cell extract was prepared from A549 lung cancer cells and cells treated with TNFα and IFNγ (TI). To each of these PA200 was added at a concentration of 4.7 nm (1:1) or 0.47 nm (1:10). As a control, MG132 proteasome inhibitor was added. The extracts were then incubated with LLE-AMC (SEQ ID NO: 3) (A), NPND-AMC (SEQ ID NO: 4) (B), LLVY-AMC (SEQ ID NO: 1) (C) or LLE-BNA (SEQ ID NO: 5) (D) for 3.5 hours and the relative fluorescence units (RFU) was measured every minute.
Proteasome Cleavage Reporter Assay: A549 cells, stimulated with TNFα and IFNγ for the indicated times, were collected and flash frozen. Frozen cells were re-suspended in lysis buffer (25 mM sucrose, 50 mM TRIS pH 7.4, 5 mM MgCl2, 0.5 mM EDTA, 2 mM ATP, 1 mM DTT). Lysates were passed 10 times through a 27 G needle, incubated on ice for 15 min and the centrifuged at 21130rcf for 10 min. Protein concentrations were measured using the Coomassie Plus (Bradford) Assay Kit (Pierce, ThermoFisher Scientific). […] of cellular lysate was incubated with 0.1 mM suc-LLVY-AMC (SEQ ID NO: 1), ac-PAL-AMC (SEQ ID NO: 2), Z-LLE-AMC (SEQ ID NO: 3) (Biotest), ac-NPND-AMC (SEQ ID NO: 4) and Z-LLE-βNA (SEQ ID NO: 5) (bachem) as per protocol and fluorescence levels were measured over time using a BioTek Synergy H1 plate reader (Ex: 360 nm, Em: 460 nm). The background protease activity was determined for each condition from an identically prepared sample with the addition of Mg132 proteasome inhibitor (0.04 mM; Calbiochem). […]

[3] = A549 extract, PA200 added at 4.7 nm (1:1) or 0.47 nm (1:10), FIG. 34A-D

| Compound | PSME4 expression [1] | effect on the TNFα and IFNγ induced increase in proteasome cleavage ([2]; A549 cells treated with TNFα and IFNγ plus recombinant PA200, LLVY-AMC or PAL-AMC, FIG. 33A-D) | chymotryptic cleavage (suc-LLVY-AMC) [2, 3] | constitutive proteasome caspase like activity (NPND-AMC + LLE-βNA) [2, 3] |
| --- | --- | --- | --- | --- |
| NC(=O)c1ncn([C@@H]2O[C@H](CO)[C@@H](O)[C@H]2O)c1O [mizoribine] | decrease in PSME4 expression |  |  |  |
| recombinant PSME4: recombinant Proteasome activator complex subunit 4 (PA200) added to A549 cell extract |  | partially reduced | reduction of activity | induces the activity |

— US20250354993A1, “METHODS OF TREATING AND DIAGNOSING LUNG CANCER” (Yeda Research and Development Co. Ltd., priority 2019, published 2025)
